Paper PMC2940852 (Biochemical pharmacology, 2010)

Tests used:
BCRP [1] = target: T1, BCRP (Homo sapiens, UniProt Q9UNQ0); conditions: human placenta brush border membrane IOVs
T1 sequence (Q9UNQ0 1-655): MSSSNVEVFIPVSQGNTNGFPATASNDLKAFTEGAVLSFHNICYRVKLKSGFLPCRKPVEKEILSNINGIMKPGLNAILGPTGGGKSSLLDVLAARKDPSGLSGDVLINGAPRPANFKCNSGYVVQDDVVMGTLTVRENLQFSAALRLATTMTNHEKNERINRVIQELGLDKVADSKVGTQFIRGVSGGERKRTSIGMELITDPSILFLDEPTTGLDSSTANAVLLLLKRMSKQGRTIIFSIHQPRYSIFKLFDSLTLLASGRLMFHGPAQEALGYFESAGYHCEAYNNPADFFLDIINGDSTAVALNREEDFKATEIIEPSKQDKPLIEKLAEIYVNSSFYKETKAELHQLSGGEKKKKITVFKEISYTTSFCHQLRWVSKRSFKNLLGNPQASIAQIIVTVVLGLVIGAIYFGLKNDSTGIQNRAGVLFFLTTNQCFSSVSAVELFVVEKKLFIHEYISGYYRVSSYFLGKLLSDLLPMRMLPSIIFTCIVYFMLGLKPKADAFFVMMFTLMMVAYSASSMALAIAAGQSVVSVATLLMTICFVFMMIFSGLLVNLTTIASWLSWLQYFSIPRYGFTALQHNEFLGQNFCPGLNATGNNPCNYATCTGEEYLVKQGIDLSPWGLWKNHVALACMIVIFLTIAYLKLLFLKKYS

placental tissue [2] = experiment: Placental viability and functional parameters during perfusion; parameters: species or system human; conditions: OH-bupropion 470 ng/ml, 4 hours, compared with control placentas
P-gp [3] = target: T2, P-gp (Homo sapiens, UniProt P08183); conditions: human placenta brush border membrane IOVs
placental tissue [4] = experiment: Metabolism by placental tissue during perfusion; format: in vitro ADME, human; conditions: 4 hours of perfusion; maternal and fetal perfusate and placental tissue
[5] = system: dually-perfused human placental lobule; experiment: Transplacental transfer, dual perfusion of human placental lobule; format: in vitro ADME; conditions: 4 hours perfusion, closed-closed
[6] = system: dually-perfused human placental lobule; conditions: human placenta; cited from earlier work
BCRP [7] = target: T1, BCRP; experiment: Stimulation of BCRP ATPase activity; format: biochemical; conditions: insect cell membranes transfected with human BCRP
P-gp [8] = target: T2, P-gp; experiment: Stimulation of P-gp ATPase activity; format: biochemical; conditions: insect cell membranes transfected with human P-gp

T2 sequence (P08183 whole entry, the tested form may be a part): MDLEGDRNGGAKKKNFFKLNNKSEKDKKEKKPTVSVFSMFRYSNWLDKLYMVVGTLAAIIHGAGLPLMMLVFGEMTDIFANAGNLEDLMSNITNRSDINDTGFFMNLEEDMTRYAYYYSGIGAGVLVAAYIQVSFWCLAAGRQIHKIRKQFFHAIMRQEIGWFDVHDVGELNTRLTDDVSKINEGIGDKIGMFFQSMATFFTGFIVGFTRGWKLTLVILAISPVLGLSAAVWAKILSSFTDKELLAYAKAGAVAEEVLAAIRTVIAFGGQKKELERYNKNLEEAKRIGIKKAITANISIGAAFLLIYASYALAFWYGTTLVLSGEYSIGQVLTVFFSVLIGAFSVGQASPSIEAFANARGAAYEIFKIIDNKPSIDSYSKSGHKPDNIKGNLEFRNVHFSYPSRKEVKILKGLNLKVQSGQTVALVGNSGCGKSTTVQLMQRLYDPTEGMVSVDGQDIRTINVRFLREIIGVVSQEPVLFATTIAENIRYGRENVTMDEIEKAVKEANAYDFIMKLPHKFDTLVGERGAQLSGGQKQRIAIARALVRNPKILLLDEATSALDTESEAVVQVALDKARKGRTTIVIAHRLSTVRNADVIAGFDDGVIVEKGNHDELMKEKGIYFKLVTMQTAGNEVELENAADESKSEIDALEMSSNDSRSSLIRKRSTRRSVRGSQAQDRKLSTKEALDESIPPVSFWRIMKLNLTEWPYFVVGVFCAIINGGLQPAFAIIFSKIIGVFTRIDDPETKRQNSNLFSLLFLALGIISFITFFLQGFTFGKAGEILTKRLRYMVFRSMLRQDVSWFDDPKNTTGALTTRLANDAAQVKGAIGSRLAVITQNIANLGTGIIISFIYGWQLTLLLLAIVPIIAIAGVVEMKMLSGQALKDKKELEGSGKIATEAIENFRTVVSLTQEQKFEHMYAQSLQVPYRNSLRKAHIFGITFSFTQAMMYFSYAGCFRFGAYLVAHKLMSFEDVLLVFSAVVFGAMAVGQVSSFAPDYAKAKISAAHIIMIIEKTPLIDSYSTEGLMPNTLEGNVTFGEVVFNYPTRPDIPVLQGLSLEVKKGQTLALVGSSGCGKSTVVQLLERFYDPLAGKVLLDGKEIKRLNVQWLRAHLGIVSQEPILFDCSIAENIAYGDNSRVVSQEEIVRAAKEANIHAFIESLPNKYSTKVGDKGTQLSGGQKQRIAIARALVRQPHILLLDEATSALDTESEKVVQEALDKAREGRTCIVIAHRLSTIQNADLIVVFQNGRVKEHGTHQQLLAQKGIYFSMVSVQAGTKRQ

Which results are given for C[C@H]1NC(C)(C)CO[C@]1(O)c1cccc(Cl)c1 [OH-bupropion, hydroxybupropion]?
Transported substrate of BCRP (BCRP [1]): not a transported substrate; Placental viability and functional parameters during perfusion (placental tissue [2]): unchanged; Transported substrate of P-gp (P-gp [3]): not a transported substrate; Biotransformation by placental enzymes during perfusion (placental tissue [4]): without undergoing biotransformation; Fetal circuit concentration as % of initial concentration in maternal circuit [5]: 32 ± 3%; Concentration in the fetal circuit at the end of the experimental period ([5]; initial maternal concentration 470 ± 17 ng/ml): 151 ± 13 ng/mL

Which “Placental transfer (freely-diffusible compounds)” value [6] does the source give for Cc1cc(=O)n(-c2ccccc2)n1C [antipyrine] here?
The value was 30–40%.

For CC(NC(C)(C)C)C(=O)c1cccc(Cl)c1 (stereo not shown) [bupropion], which “Vmax of stimulation of ATPase activity by BCRP” value (BCRP [7]) is on record?
Its value is 6 ± 0.8 nmoles Pi/mg protein*min.

And the “Vmax of stimulation of ATPase activity by P-gp” value (P-gp [8])?
Its value is 9.5 ± 1.6 nmoles Pi/mg protein*min.

With CN1CCC[C@H]1c1cccnc1 [nicotine] as the compound, how does the “Placental transfer (freely-diffusible compounds)” value [6] read?
Its value is 30–40%.
